≈ marks a conversion by molar mass, not a printed value. Read-outs that look alike come from different tables or passages of the source.

We go through 7 compounds from patent US8791098B2 (priority 2008, dated 2014).

For one data set, the system named is HL-60 cells. The data set is described as follows: cells. To be noted: for anti-proliferation effects: HL-60, concentrations up to 100 ng/ml. Here is the method: A given number of cells were cultivated in 96-well plates with serial dilutions of the drugs up to 100 ng/ml. Tubulysin A is used as a positive control, whereas methanol is used as a negative control. After 5 days of incubation the metabolic activities of the cells were measured using MTT-assay as described under the methods section.
The effect of pre-tubulysin 816 and 827 was tested with regard to the growth of other cell lines, including the mouse connective tissues fibroblast L929, the human lung carcinoma cell line A549, the human colon adenocarcinoma cell line SW-480, and the human histiocytic lymphoma cell line U937, in addition to the human myeloid leukemia cell line HL-60.

A further data set has as its system COS-7. Put plainly: cells. Format: cell-based, African green monkey. To be noted: COS-7, average of two measurements. The protocol:
(§1) Cytotoxicity testing of pretubulysin (AU827), N-desmethyl-pretubulysin (AU816) and Tubulysin A and D was performed as follows: Cells were seeded at 6×10^3 cells per well of 96-well plates in 180 μl complete medium and directly treated with varying concentrations of (pre-)tubulysins diluted in methanol. Each compound was tested in duplicate as well as the internal methanol control. After 5 d incubation, 20 μl of 5 mg/ml MTT (Thiazolyl blue tetrazolium bromide) in PBS was added per well and it was further incubated for 2 h at 37° C. The medium was then discarded and cells were washed with 100 μl PBS before adding 100 μl 2-propanol/10 N HCl (250:1) in order to dissolve formazan granules.
(§2) The absorbance at 570 nm was measured using a microplate reader (EL808, Bio-Tek Instruments Inc.), and cell viability was expressed as percentage relative to the respective methanol control. IC50 values were obtained by plotting relative growth inhibition in % against the compound concentration on a logarithmic scale. After sigmoidal curve fitting IC50 values can be determined. The IC50[per ml] are shown in the following table (values represent the average of two measurements): […]

Data set [1] relates to L929. Put plainly: cells. Format: cell-based, mouse. To be noted: L929, average of two measurements. Here is the method: as §1, §2
For another data set, the system named is A431. Put plainly: cells. To be noted: A431, average of two measurements. It counts as cell-based, human. Here is the method:
as §1, §2

The test system of the next data set is A549. The data set is described as follows: cells. To be noted: A549, average of two measurements. Format: cell-based, human. The protocol: as §1, §2
For the next data set, the system named is HEK293T. Put plainly: cells. It counts as cell-based, human. To be noted: average of two measurements. The protocol: as §1, §2
For the next data set, the system named is HL-60. The data set is described as follows: cells. It counts as cell-based, human. To be noted: HL-60, average of two measurements. Here is the method: as §1, §2
Another data set relates to HepG2. Put plainly: cells. To be noted: HepG2, average of two measurements. It counts as cell-based, human. Here is the method: as §1, §2
The test system of the next data set is K562. Put plainly: cells. To be noted: K562, average of two measurements. Format: cell-based, human. Here is the method:
as §1, §2

Another data set deals with KB3.1. The data set is described as follows: cells. To be noted: KB3.1, average of two measurements. It counts as cell-based, human. The protocol:
as §1, §2

A further data set has as its system SH-SY5Y. Put plainly: cells. Format: cell-based, human. To be noted: average of two measurements. Here is the method: as §1, §2
A further data set has as its system SW480. The data set is described as follows: cells. To be noted: SW480, average of two measurements. Format: cell-based, human. Here is the method: as §1, §2
Data set [2] deals with U937. Put plainly: cells. To be noted: U937, average of two measurements. Format: cell-based, human. The protocol: as §1, §2
Data set [3] concerns U-2 OS human osteosarcoma cells. Put plainly: cells. It counts as cell-based. To be noted: average of two measurements. The protocol:
as §1
The absorbance at 570 nm was measured using a microplate reader (EL808, Bio-Tek Instruments Inc.), and cell viability was expressed as percentage relative to the respective methanol control. IC50 values were obtained by plotting relative growth inhibition in % against the compound concentration on a logarithmic scale. After sigmoidal curve fitting IC50 values can be determined. The IC50[per ml] are shown in the following table (values represent the average of two measurements):
Similarly cytotoxicity testing of Pretubulysin-related compounds in U-2 OS human osteosarcoma cells was performed and was further compared with AU 339 and AU 954, compounds mentioned in WO2008/106080 and WO2004/046170. The IC50 values are shown in the following table (values represent the average of two measurements): […]

Another data set has as its system PtK2 cells. Format: cell-based. To be noted: 24 hours incubation. Here is the method: Cell staining: Ptk2 cells were seeded on round glass coverslips (13 mm in diameter) in 4-well plates. Cells were incubated with the drugs to the given times as indicated for each experiment. For staining the microtubules and the nuclei, cells were firstly fixed with cold (−20° C.) acetone/methanol (1:1) for 10 min. For labelling the microtubules, cells were incubated with a primary monoclonal antibody against α-tubulin (1:500 Sigam) for 45 min at 37° C., followed by a secondary anti-mouse IgG antibody conjugated with Alexa488 (1:2000; Molecular probes) under the same incubations conditions. The nuclei were stained with DAPI (1 μg/ml in PBS). The cells were washed with phosphate buffer saline (PBS) between incubations. Coverslips were mounted by using Prolong Antifade (Molecular Probes) and imaged through a fluorescence microscope (LSM-Zeiss) with appropriate filter set.
Tubulysin A and D are known to induce de-polymerization of the interphase microtubules of mammalian cells and additionally induce a multi-polar spindle pool in mitotic cells (Khalil, M. et al., Chembiochem. 7, 678-683 (2006); Sasse, F., Menche, D. Nat. Chem. Biol. 3, 87-89 (2007)). Here the effect of pre-tubulysin treatment on the morphologies of microtubules and microtubules related structures in PtK2 cells was tested. PtK2 cells were seeded onto glass cover clips in 4 well plates and cultivated for 24 or 48 hours under growth conditions. The cells were then treated with different concentrations of tubulysin A, tubulysin D, pre-tubulysin-816 or pre-tubulysin-827. The control cells were treated only with equivalent amount of methanol (solvent). The cells were thin incubated for further 24 hours before they were fixed as described under the methods section. Fixed cells were then washed with PBS and finally labeled with anti-α-tubulin primary antibodies followed by anti-mouse-alexa-488 secondary antibodies to visualize the microtubules. The nuclei were stained with DAPI.

A further data set concerns cancer cell lines. To be noted: growth inhibition of cancer cell lines; cited from earlier work.
The test system of data set [4] is L929. The data set is described as follows: Anti-proliferation MTT assay (Example 2, Table 1). Format: cell-based. To be noted: L929 mouse connective tissue fibroblast. For orientation: Tetrazolium dyes change colour on reduction, which living cells bring about.
The subject of data set [5] is U937. The data set is described as follows: Anti-proliferation MTT assay (Example 2, Table 1). To be noted: U937 human histiocytic lymphoma. It counts as cell-based.
Setting [6] is: Homo sapiens, U2OS, comparison with prior art compounds, read-out: IC50.

As a reminder, the IC50 is the concentration at which inhibition is half-maximal. With `CC[C@H](C)[C@H](NC(=O)[C@H]1CCCCN1C)C(=O)N(C)[C@H](CCc1nc(C(=O)N[C@@H](Cc2ccccc2)C(=O)O)cs1)C(C)C` [pre-tubulysin-815], the anti-proliferation effects entry in the data set on HL-60 cells (5 days, MTT) is given as “no anti-proliferation effects”. For the same compound, half-maximal inhibition in the data set on HL-60 cells (Homo sapiens, HL-60) (IC50) was put at 700 ng/mL (≈ 1110 nM).
Consider `CC[C@H](C)[C@H](NC(=O)[C@H]1CCCCN1C)C(=O)N(COC(=O)CC(C)C)[C@H](C[C@@H](OC(C)=O)c1nc(C(=O)N[C@@H](Cc2ccccc2)C[C@H](C)C(=O)O)cs1)C(C)C` [Tubulysin D, reference compound], for which the IC50 in the data set with COS-7 (Chlorocebus sabaeus, read-out: IC50) is 0.0337 ng/mL (≈ 0.0407 nM); in the data set with L929 [1] (Mus musculus, read-out: IC50), 0.017 ng/mL (≈ 0.0205 nM); with A431 (Homo sapiens, A-431, read-out: IC50), 0.0119 ng/mL (≈ 0.0144 nM); in the data set with A549 (Homo sapiens, read-out: IC50) it was 0.0056 ng/mL (≈ 0.00676 nM); in the data set with HEK293T (Homo sapiens, HEK-293T, read-out: IC50) it was 0.0104 ng/mL (≈ 0.0126 nM); with HL-60 (Homo sapiens, read-out: IC50), 0.0028 ng/mL (≈ 0.00338 nM). In addition, the IC50 in the data set on HepG2 (Homo sapiens, read-out: IC50) was determined as 0.0066 ng/mL (≈ 0.00797 nM); in the data set with K562 (Homo sapiens, read-out: IC50), 0.0222 ng/mL (≈ 0.0268 nM); in the data set on KB3.1 (Homo sapiens, KB 3-1, read-out: IC50) it was 0.0182 ng/mL (≈ 0.022 nM); with SH-SY5Y (Homo sapiens, read-out: IC50) it was 0.0113 ng/mL (≈ 0.0136 nM); in the data set with SW480 (Homo sapiens, read-out: IC50), 0.0037 ng/mL (≈ 0.00447 nM); with U937 [2] (Homo sapiens, U-937, read-out: IC50), 0.0025 ng/mL (≈ 0.00302 nM). The 50% inhibitory concentration (IC50) was 0.0342 ng/mL (≈ 0.0413 nM) in data set [3] (Homo sapiens, U2OS, read-out: IC50) and 0.034 ng/mL (≈ 0.0411 nM) in data set [3] (setting [6]). In the data set on PtK2 cells, the “concentration for complete de-polymerization (disappearance) of interphase microtubules” value came out at 50 pg/mL. Besides, the “potency relative to tubulysin A” value with cancer cell lines is “approximately 10 folds”.
Take `CC[C@H](C)[C@H](NC(=O)CN(C)C)C(=O)N(C)[C@H](CCc1nc(C(=O)N[C@H](CCC(=O)O)Cc2ccccc2)cs1)C(C)C` [pre-tubulysin-825]: the anti-proliferation effects entry with HL-60 cells (5 days, MTT) is “no anti-proliferation effects”. In the data set on HL-60 cells (Homo sapiens, HL-60), this compound showed an IC50 of 600 ng/mL (≈ 974 nM).
With `CCOC(=O)/C(C)=C/[C@H](Cc1ccccc1)NC(=O)c1csc(CC[C@H](C(C)C)N(C)C(=O)[C@@H](NC(=O)[C@H]2CCCCN2C)[C@@H](C)CC)n1` [AU939], in data set [3] (setting [6]), the IC50 is 339 ng/mL (≈ 487 nM).
In the case of `CC[C@H](C)[C@H](NC(=O)[C@H]1CCCCN1C)C(=O)N(C)[C@H](CCc1nc(C(=O)N[C@H](/C=C(\C)C(=O)O)Cc2ccccc2)cs1)C(C)C` [AU954], the IC50 in data set [3] (setting [6]) is 82 ng/mL (≈ 123 nM).
As for `CC[C@H](C)[C@H](NC(=O)[C@H]1CCCCN1C)C(=O)N(COC(=O)CC(C)C)[C@H](C[C@@H](OC(C)=O)c1nc(C(=O)N[C@@H](Cc2ccc(O)cc2)C[C@H](C)C(=O)O)cs1)C(C)C` [Tubulysin A, reference compound], the IC50 with HL-60 cells (HL-60, serial dilutions up to 100 ng/ml, 5 days, MTT) was found to be 0.0019 ng/mL (≈ 0.00225 nM); with COS-7, 0.0806 ng/mL (≈ 0.0955 nM); in the data set on L929 [1], 0.21 ng/mL (≈ 0.249 nM); in the data set with A431, 0.1002 ng/mL (≈ 0.119 nM); in the data set on A549, 0.0856 ng/mL (≈ 0.101 nM); in the data set on HEK293T, 0.0523 ng/mL (≈ 0.062 nM). Moreover, the IC50 with HL-60 was 0.0479 ng/mL (≈ 0.0567 nM); in the data set with HepG2, 0.12 ng/mL (≈ 0.142 nM); with K562, 0.40 ng/mL (≈ 0.474 nM); in the data set with KB3.1, 0.16 ng/mL (≈ 0.19 nM); with SH-SY5Y, 0.21 ng/mL (≈ 0.249 nM); in the data set with SW480 it was 0.0187 ng/mL (≈ 0.0222 nM). Also, the IC50 in the data set with U937 [2] came to 0.0461 ng/mL (≈ 0.0546 nM); in data set [3], 0.19 ng/mL (≈ 0.225 nM); in data set [3] (comparison with prior art compounds), 0.19 ng/mL (≈ 0.225 nM). For the same compound, the IC50 value turned out to be 0.002 ng/mL (≈ 0.00237 nM) in the data set on HL-60 cells (HL-60 human acute myeloid leukemia (Table 1)), 0.15 ng/mL (≈ 0.178 nM) in the data set on L929 [4] and 0.002 ng/mL (≈ 0.00237 nM) in the data set with U937 [5]. Further, the “concentration for complete de-polymerization (disappearance) of interphase microtubules” value in the data set with PtK2 cells came out at 500 pg/mL.
`CC[C@H](C)[C@H](NC(=O)[C@H]1CCCCN1C)C(=O)N(C)[C@H](CCc1nc(C(=O)O)cs1)C(C)C` [pre-tubulysin-814]: the anti-proliferation effects entry in the data set with HL-60 cells (5 days, MTT) is given as “no anti-proliferation effects”. For the same compound, the cytotoxic activity result with HL-60 cells (at concentration up to 11 μg/ml, listed as Pre-tub-814) is “did not show any cytotoxic activity”.
